Source: patent US20240158446A1, “CYCLIC COMPOUND HAVING SELECTIVE INHIBITORY ACTION ON KRAS OVER HRAS AND NRAS” (CHUGAI SEIYAKU KABUSHIKI KAISHA, priority 2021, published 2024)
Where two headings read alike, the source gives them in different places.

Tests used:
[1] = molecular target: GDP-bound KRAS wild-type protein (Homo sapiens, UniProt P01116); assay: Binding to KRAS by surface plasmon resonance (SPR), Single Cycle Kinetics; settings: GDP-bound KRAS wild-type protein, read-out: KRAS KD
[2] = molecular target: GDP-bound HRAS wild-type protein (Homo sapiens, UniProt P01112); assay: Binding to HRAS by surface plasmon resonance (SPR), Single Cycle Kinetics; settings: for HRAS/KRAS (ratio of KD value for HRAS to KD value for KRAS): GDP-bound HRAS wild-type protein vs GDP-bound KRAS wild-type protein; for HRAS/KRAS (ratio of KD value with respect to GDP-bound HRAS wild-type protein to KD value with respect to KRAS): SPR KD ratio HRAS/KRAS, class symbols
Chain of GDP-bound HRAS wild-type protein (P01112 whole entry): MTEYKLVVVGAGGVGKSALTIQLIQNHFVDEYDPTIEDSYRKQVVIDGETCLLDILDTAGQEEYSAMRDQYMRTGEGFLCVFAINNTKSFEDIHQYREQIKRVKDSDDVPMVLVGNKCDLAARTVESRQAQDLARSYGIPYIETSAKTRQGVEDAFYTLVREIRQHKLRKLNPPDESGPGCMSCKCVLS

[3] = molecular target: GDP-bound NRAS wild-type protein (Homo sapiens, UniProt P01111); assay: Binding to NRAS by surface plasmon resonance (SPR), Single Cycle Kinetics; settings: for NRAS/KRAS (ratio of KD value for NRAS to KD value for KRAS): GDP-bound NRAS wild-type protein vs GDP-bound KRAS wild-type protein; for NRAS/KRAS (ratio of KD value with respect to GDP-bound NRAS wild-type protein to KD value with respect to KRAS): SPR KD ratio NRAS/KRAS, class symbols
Chain of GDP-bound NRAS wild-type protein (P01111 whole entry): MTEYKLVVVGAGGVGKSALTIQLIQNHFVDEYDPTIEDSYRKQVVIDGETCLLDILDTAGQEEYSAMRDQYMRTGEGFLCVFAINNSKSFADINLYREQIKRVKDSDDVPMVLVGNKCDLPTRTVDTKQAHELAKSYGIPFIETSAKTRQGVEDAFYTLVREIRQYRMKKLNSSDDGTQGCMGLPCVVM

[4] = test system: human lung cancer strain NCI-H441;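 further: cell proliferation inhibition after four days measured by CellTiter-Glo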
[5] = SPR, Single Cycle Kinetics, 1:1 binding model
[6] = SPR Single Cycle Kinetics, 1:1 binding model

Chain of GDP-bound KRAS wild-type protein (P01116 whole entry): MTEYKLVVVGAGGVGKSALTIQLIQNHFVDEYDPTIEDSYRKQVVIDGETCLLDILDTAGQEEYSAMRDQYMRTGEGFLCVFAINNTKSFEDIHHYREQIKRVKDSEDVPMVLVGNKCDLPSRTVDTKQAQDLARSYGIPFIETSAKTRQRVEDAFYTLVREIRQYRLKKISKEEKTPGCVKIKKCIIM

Row | SMILES | Kd [1, 5] | IC50 [4] | Kd [1, 6] | HRAS/KRAS (ratio of KD value for HRAS to KD value for KRAS) ([2]; SPR, KD ratio class) | NRAS/KRAS (ratio of KD value for NRAS to KD value for KRAS) ([3]; SPR, KD ratio class) | HRAS/KRAS (ratio of KD value with respect to GDP-bound HRAS wild-type protein to KD value with respect to KRAS) [2] | NRAS/KRAS (ratio of KD value with respect to GDP-bound NRAS wild-type protein to KD value with respect to KRAS) [3] | other results
1 | CCC[C@H]1C(=O)N[C@@H]([C@@H](C)CC)C(=O)N(C)CC(=O)N(C)[C@H]2C/C=C\CCN(C2=O)[C@@H](Cc2ccc(C)cc2)C(=O)N(C)CC(=O)N[C@@H](CCc2cc(F)c(C(F)(F)F)c(F)c2)C(=O)N2C[C@H](OCC)C[C@H]2C(=O)NC2(CC(C)(C)C2)C(=O)N(C)[C@@H](CC(C)(C)C)C(=O)N(C)[C@H](C(=O)N(C)C)CC(=O)N1C [PP2706] | – | 2.3 nM | 0.076 nM | – | – | B (a compound having 3 or more and less than 10 is denoted as B) | A (a compound having 10 or more and less than 20 is denoted as A) | –
2 | CCC[C@H]1C(=O)N[C@@H]([C@@H](C)CC)C(=O)N(C)CC(=O)N(C)[C@H]2C/C=C\CCN(C2=O)[C@@H](Cc2ccc(C(F)F)cc2)C(=O)N(C)CC(=O)N[C@@H](CCc2ccc(Cl)c(Cl)c2)C(=O)N2C[C@H](OCC)C[C@H]2C(=O)NC2(CC(C)(C)C2)C(=O)N(C)[C@@H](C(CC)CC)C(=O)N(C)[C@H](C(=O)N(C)C)CC(=O)N1C [PP2531] | – | 16.3 nM | 0.51 nM | – | – | A (a compound having 10 or more and less than 20 is denoted as A) | AA (a compound having 20 or more is denoted as AA) | –
3 | CCC[C@H]1C(=O)N[C@@H]([C@@H](C)CC)C(=O)N(C2CC2)CC(=O)N(C)[C@H]2C/C=C\CCN(C2=O)[C@@H](Cc2ccc(C(F)(F)F)cc2)C(=O)N(C)CC(=O)N[C@@H](CCc2ccc(C(F)(F)F)c(OC)c2)C(=O)N2C[C@H](OCC)C[C@H]2C(=O)NC2(CC(C)(C)C2)C(=O)N(C)[C@@H](CC(C)(C)C)C(=O)N(C)[C@H](C(=O)N(C)C)CC(=O)N1C [PP2746] | – | 10.2 nM | 0.28 nM | – | – | A (a compound having 10 or more and less than 20 is denoted as A) | A (a compound having 10 or more and less than 20 is denoted as A) | –
4 | CCC[C@H]1C(=O)N[C@@H]([C@@H](C)CC)C(=O)N(C2CC2)CC(=O)N(C)[C@H]2C/C=C\CCN(C2=O)[C@@H](Cc2ccc(C)cc2)C(=O)N(C)CC(=O)N[C@@H](CCc2cc(F)c(C(F)(F)F)c(F)c2)C(=O)N2C[C@H](OCC)C[C@H]2C(=O)NC2(CC(C)(C)C2)C(=O)N(C)[C@@H](CC(C)(C)C)C(=O)N(C)[C@H](C(=O)N(C)C)CC(=O)N1C [PP2718] | – | 7.6 nM | 0.33 nM | – | – | A (a compound having 10 or more and less than 20 is denoted as A) | A (a compound having 10 or more and less than 20 is denoted as A) | –
5 | CCCO[C@H](C)[C@@H]1NC(=O)[C@H](COCC)N(C)C(=O)C[C@@H](C(=O)N(C)CC)N(C)C(=O)[C@H](C2CCCC2)N(C)C(=O)C2(CC(C)(C)C2)NC(=O)[C@@H]2C[C@@H](OCC)CN2C(=O)[C@H](CCc2cc(F)c(C(F)(F)F)c(F)c2)NC(=O)CN(C)C(=O)[C@H](Cc2ccc(C)cc2)N2CC/C=C\C[C@@H](C2=O)N(C)C(=O)[C@@H]2CCCN2C1=O [PP2436] | – | 126 nM | – | – | – | – | – | Kd ([1]; SPR, Single Cycle Kinetics): 1.6 nM; HRAS/KRAS (ratio of KD value for HRAS to KD value for KRAS) ([2]; SPR): A (a compound having 10 or more and less than 20 is denoted as A); NRAS/KRAS (ratio of KD value for NRAS to KD value for KRAS) ([3]; SPR): A (a compound having 10 or more and less than 20 is denoted as A)
6 | CC[C@H](C)[C@@H]1NC(=O)[C@@H]2CCCCCc3ccc(cc3)C[C@@H](C(=O)N(C)CC(=O)N[C@@H](CCc3ccc(C(F)(F)F)c(OC)c3)C(=O)N3C[C@H](OC4CCC4)C[C@H]3C(=O)NC3(CC(C)(C)C3)C(=O)N(C)[C@@H](C3CCCC3)C(=O)N(C)[C@H](C(=O)N(C)C)CC(=O)N2C)N2CC/C=C\C[C@@H](C2=O)N(C)C(=O)CN(C)C1=O [PP3073] | – | – | – | – | – | – | – | Kd ([1]; SPR, Single Cycle Kinetics): 0.025 nM; HRAS/KRAS (ratio of KD value for HRAS to KD value for KRAS) ([2]; SPR): A (a compound having 10 or more and less than 20 is denoted as A); ratio of the KD value with respect to GDP-bound HRAS wild-type protein to the KD value with respect to KRAS ([2]; SPR, KD(HRAS)/KD(KRAS)): A (a compound having 10 or more and less than 20 is denoted as A); NRAS/KRAS (ratio of KD value for NRAS to KD value for KRAS) ([3]; SPR): A (a compound having 10 or more and less than 20 is denoted as A); ratio of the KD value with respect to GDP-bound NRAS wild-type protein to the KD value with respect to KRAS ([3]; SPR, KD(NRAS)/KD(KRAS)): A (a compound having 10 or more and less than 20 is denoted as A); IC50 ([4]; read-out: NCI-H441 cell proliferation inhibitory activity, 50% proliferation inhibitory concentration (IC50 value), NCI-H441, four days, CellTiter-Glo): 1.9 nM
7 | CCC[C@H]1C(=O)N[C@@H]([C@@H](C)CC)C(=O)N2C[C@@H](OC)C[C@H]2C(=O)N(C)[C@H]2C/C=C\CCN(C2=O)[C@@H](Cc2ccc(C)cc2)C(=O)N(C)CC(=O)N[C@@H](CCc2cc(F)c(C(F)(F)F)c(F)c2)C(=O)N2C[C@H](OCC)C[C@H]2C(=O)NC2(CCC2)C(=O)N(C)[C@@H](C2CCCC2)C(=O)N(C)[C@H](C(=O)N(C)C)CC(=O)N1C [PP2550] | – | 38.5 nM | 0.29 nM | – | – | B (a compound having 3 or more and less than 10 is denoted as B) | A (a compound having 10 or more and less than 20 is denoted as A) | –

Continued, in another order:

Row | Kd [1, 5] | IC50 [4] | Kd [1, 6] | SMILES | HRAS/KRAS (ratio of KD value for HRAS to KD value for KRAS) ([2]; SPR, KD ratio class) | NRAS/KRAS (ratio of KD value for NRAS to KD value for KRAS) ([3]; SPR, KD ratio class) | HRAS/KRAS (ratio of KD value with respect to GDP-bound HRAS wild-type protein to KD value with respect to KRAS) [2] | NRAS/KRAS (ratio of KD value with respect to GDP-bound NRAS wild-type protein to KD value with respect to KRAS) [3] | other results
8 | 0.24 nM | 25.1 nM | – | CCO[C@@H]1C[C@H]2C(=O)NC3(CCC3)C(=O)N(C)[C@@H](C3CCCC3)C(=O)N(C)[C@H](C(=O)N3CCOCC3)CC(=O)N(C)[C@@H](CC3CCCC3)C(=O)N[C@@H]([C@@H](C)CC)C(=O)N(C)CC(=O)N(C)[C@H]3C/C=C\CCN(C3=O)[C@@H](Cc3ccc(C)cc3)C(=O)N(C)CC(=O)N[C@@H](CCc3cc(F)c(C(F)(F)F)c(F)c3)C(=O)N2C1 [PP1394] | A (a compound having 10 or more and less than 20 is denoted as A) | AA (a compound having 20 or more is denoted as AA) | – | – | –
9 | 0.081 nM | 30.2 nM | – | CCO[C@@H]1C[C@H]2C(=O)NC3(CCC3)C(=O)N(C)[C@@H](C3CCCC3)C(=O)N(C)[C@H](C(=O)N(C)C)CC(=O)N(C)[C@@H](CC3CC3)C(=O)N[C@@H]([C@@H](C)CC)C(=O)N(C)CC(=O)N(C)[C@H]3C/C=C\CCN(C3=O)[C@@H](Cc3ccc(F)cc3)C(=O)N(C)CC(=O)N[C@@H](CCc3cc(F)c(C(F)(F)F)c(F)c3)C(=O)N2C1 [PP1529, (2S,8S,12R,14S,20S,23S,27S,30S,36S,38Z)-20-cyclopentyl-27-(cyclopropylmethyl)-8-[2-[3,5-difluoro-4-(trifluoromethyl)phenyl]ethyl]-12-ethoxy-2-[(4-fluorophenyl)methyl]-N,N,4,19,22,26,32,35-octamethyl-30-[(1S)-1-methylpropyl]-3,6,9,15,18,21,25,28,31,34,42-undecaoxo-spiro[1,4,7,10,16,19,22,26,29,32,35-undecazatricyclo[34.5.1.0^10,14]dotetracont-38-ene-17,1′-cyclobutane]-23-carboxamide] | B (a compound having 3 or more and less than 10 is denoted as B) | A (a compound having 10 or more and less than 20 is denoted as A) | – | – | –
10 | 0.074 nM | 10.8 nM | – | CC[C@H](C)[C@@H]1NC(=O)[C@H](CC)N(C)C(=O)C[C@@H](C(=O)N(C)C)N(C)C(=O)[C@H](C2CCCC2)N(C)C(=O)C2(CCCC2)NC(=O)[C@@H]2CCCN2C(=O)[C@H](CCc2ccc(C(F)(F)F)c(Cl)c2)NC(=O)CN(C)C(=O)[C@H](Cc2ccc(C(F)(F)F)cc2)N2C[C@H](C)CC[C@@H](C2=O)N(C)C(=O)CN(C)C1=O [PP1336] | B (a compound having 3 or more and less than 10 is denoted as B) | B (a compound having 3 or more and less than 10 is denoted as B) | – | – | –
11 | 1.2 nM | 117 nM | – | CCO[C@@H]1C[C@H]2C(=O)NC3(CCC3)C(=O)N(C)[C@@H](C(CC)CC)C(=O)N(C)[C@H](C(=O)N(C)C)CC(=O)N(C)[C@@H](CC)C(=O)N[C@@H]([C@@H](C)CC)C(=O)N(C)CC(=O)N(C)[C@H]3C/C=C\CCN(C3=O)[C@@H](Cc3ccc(C(F)(F)F)cc3)C(=O)N(C)CC(=O)N[C@@H](CCc3ccc4sccc4c3)C(=O)N2C1 [PP1223] | A (a compound having 10 or more and less than 20 is denoted as A) | AA (a compound having 20 or more is denoted as AA) | – | – | –
12 | 0.074 nM | 4.4 nM | – | CCO[C@@H]1C[C@H]2C(=O)NC3(CCC3)C(=O)N(C)[C@@H](C3CCCC3)C(=O)N(C)[C@H](C(=O)N(C)C)CC(=O)N(C)[C@@H](CC(C)C)C(=O)N[C@@H]([C@@H](C)CC)C(=O)N(C)CC(=O)N(C)[C@H]3C/C=C\CCN(C3=O)[C@@H](Cc3ccc(C)cc3)C(=O)N(C)CC(=O)N[C@@H](CCc3cc(F)c(C(F)(F)F)c(F)c3)C(=O)N2C1 [PP1414, (2S,8S,12R,14S,20S,23S,27S,30S,36S,38Z)-20-cyclopentyl-8-[2-[3,5-difluoro-4-(trifluoromethyl)phenyl]ethyl]-12-ethoxy-27-isobutyl-N,N,4,19,22,26,32,35-octamethyl-30-[(1S)-1-methylpropyl]-3,6,9,15,18,21,25,28,31,34,42-undecaoxo-2-(p-tolylmethyl)spiro[1,4,7,10,16,19,22,26,29,32,35-undecazatricyclo[34.5.1.0^10,14]dotetracont-38-ene-17,1′-cyclobutane]-23-carboxamide] | B (a compound having 3 or more and less than 10 is denoted as B) | A (a compound having 10 or more and less than 20 is denoted as A) | – | – | –
